Measured values reported in the supplement of paper PMC10307832.

Assays:
Experiment in all cases: relative viability (nuclei count vs DMSO), 5 days (fraction); higher = more cells survive
201T = system: 201T
Method in brief: (§1)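 Five library-drug doses in √10 steps were combined with a fixed anchor-drug dose, or a single drug was given alone, by pin tool to lung cancer cell lines in 1536-well plates the day after seeding. Nuclei were stained and counted after 5 days. Relative viability is the nuclei count in treated wells over that in vehicle wells, taken as the median of duplicate plates.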

BEN = system: BEN
Method in brief: as §1

EMC-BAC-2 = system: EMC-BAC-2
Method in brief: as §1

HARA = system: HARA
Method in brief: as §1

HCC-44 = system: HCC-44
Method in brief: as §1

LCLC-103H = system: LCLC-103H
Method in brief: as §1

LOU-NH91 = system: LOU-NH91
Method in brief: as §1

NCI-H1395 = system: NCI-H1395
Method in brief: as §1

NCI-H1666 = system: NCI-H1666
Method in brief: as §1

NCI-H1993 = system: NCI-H1993
Method in brief: as §1

NCI-H2009 = system: NCI-H2009
Method in brief: as §1

NCI-H2023 = system: NCI-H2023
Method in brief: as §1

NCI-H2087 = system: NCI-H2087
Method in brief: as §1

NCI-H2126 = system: NCI-H2126
Method in brief: as §1

NCI-H2347 = system: NCI-H2347
Method in brief: as §1

NCI-H23 = system: NCI-H23
Method in brief: as §1

NCI-H3122 = system: NCI-H3122
Method in brief: as §1

NCI-H441 = system: NCI-H441
Method in brief: as §1

NCI-H596 = system: NCI-H596
Method in brief: as §1

NCI-H647 = system: NCI-H647
Method in brief: as §1

NCI-H650 = system: NCI-H650
Method in brief: as §1

NCI-H727 = system: NCI-H727
Method in brief: as §1

NCI-H838 = system: NCI-H838
Method in brief: as §1

CC(C)Oc1cc(Nc2nc(N[C@@H](C)c3ccc(F)cn3)ncc2Cl)n[nH]1 [AZ23] + Cc1nc(NC(=O)N2CCC[C@H]2C(N)=O)sc1-c1ccnc(C(C)(C)C(F)(F)F)c1 [Alpelisib] (partner 2 µM)
relative viability (201T; first compound 0.01 µM): 1.03
relative viability (201T; first compound 0.03162 µM): 1.09
relative viability (201T; first compound 0.3162 µM): 1.02
relative viability (BEN; first compound 0.01 µM): 1.02
relative viability (BEN; first compound 0.03162 µM): 1.18
relative viability (BEN; first compound 0.3162 µM): 1.09
relative viability (EMC-BAC-2; first compound 0.01 µM): 0.897
relative viability (EMC-BAC-2; first compound 0.03162 µM): 0.791
relative viability (EMC-BAC-2; first compound 0.3162 µM): 0.754
relative viability (HARA; first compound 0.01 µM): 1.18
relative viability (HARA; first compound 0.03162 µM): 0.847
relative viability (HARA; first compound 0.3162 µM): 0.774
relative viability (HCC-44; first compound 0.01 µM): 0.858
relative viability (HCC-44; first compound 0.03162 µM): 0.915
relative viability (HCC-44; first compound 0.3162 µM): 0.871
relative viability (LCLC-103H; first compound 0.01 µM): 0.953
relative viability (LCLC-103H; first compound 0.03162 µM): 1.01
relative viability (LCLC-103H; first compound 0.3162 µM): 0.996
relative viability (LOU-NH91; first compound 0.01 µM): 0.676
relative viability (LOU-NH91; first compound 0.03162 µM): 0.775
relative viability (LOU-NH91; first compound 0.3162 µM): 0.699
relative viability (NCI-H1395; first compound 0.03162 µM): 1.06
relative viability (NCI-H1395; first compound 0.3162 µM): 1.08
relative viability (NCI-H1666; first compound 0.01 µM): 0.869
relative viability (NCI-H1666; first compound 0.03162 µM): 1.02
relative viability (NCI-H1666; first compound 0.3162 µM): 0.92
relative viability (NCI-H1993; first compound 0.01 µM): 0.597
relative viability (NCI-H1993; first compound 0.3162 µM): 0.659
relative viability (NCI-H2009; first compound 0.01 µM): 1.13
relative viability (NCI-H2009; first compound 0.03162 µM): 1.23
relative viability (NCI-H2009; first compound 0.3162 µM): 1.19
relative viability (NCI-H2023; first compound 0.03162 µM): 0.675
relative viability (NCI-H2023; first compound 0.3162 µM): 0.623
relative viability (NCI-H2087; first compound 0.01 µM): 1.39
relative viability (NCI-H2087; first compound 0.03162 µM): 1.07
relative viability (NCI-H2087; first compound 0.3162 µM): 1.07
relative viability (NCI-H2126; first compound 0.01 µM): 0.768
relative viability (NCI-H2126; first compound 0.03162 µM): 0.698
relative viability (NCI-H2126; first compound 0.3162 µM): 0.769
relative viability (NCI-H2347; first compound 0.01 µM): 1.06
relative viability (NCI-H2347; first compound 0.03162 µM): 1.09
relative viability (NCI-H2347; first compound 0.3162 µM): 1.08
relative viability (NCI-H23; first compound 0.03162 µM): 0.749
relative viability (NCI-H23; first compound 0.3162 µM): 0.573
relative viability (NCI-H3122; first compound 0.01 µM): 0.811
relative viability (NCI-H3122; first compound 0.03162 µM): 0.827
relative viability (NCI-H3122; first compound 0.3162 µM): 0.77
relative viability (NCI-H441; first compound 0.01 µM): 1.05
relative viability (NCI-H441; first compound 0.03162 µM): 0.621
relative viability (NCI-H441; first compound 0.3162 µM): 0.576
relative viability (NCI-H596; first compound 0.01 µM): 0.51
relative viability (NCI-H596; first compound 0.03162 µM): 0.528
relative viability (NCI-H596; first compound 0.3162 µM): 0.418
relative viability (NCI-H647; first compound 0.01 µM): 1.63
relative viability (NCI-H647; first compound 0.03162 µM): 1.37
relative viability (NCI-H647; first compound 0.3162 µM): 1.17
relative viability (NCI-H650; first compound 0.01 µM): 1.03
relative viability (NCI-H650; first compound 0.03162 µM): 1.19
relative viability (NCI-H650; first compound 0.3162 µM): 1.16
relative viability (NCI-H727; first compound 0.01 µM): 0.634
relative viability (NCI-H727; first compound 0.03162 µM): 0.628
relative viability (NCI-H727; first compound 0.3162 µM): 0.601
relative viability (NCI-H838; first compound 0.01 µM): 0.968
relative viability (NCI-H838; first compound 0.03162 µM): 1.25
relative viability (NCI-H838; first compound 0.3162 µM): 0.998
